pIC50: −log10 of the molar value. “Also recorded” adds a separate entry of the source.
Columns and labels:
SH-SY5Y cells [1] = experiment: ROS measurement (H2DCF-DA, flow cytometry) after H2O2 insult; format: cell-based, human; conditions: for ROS measurement 250 nM / ROS measurement 500 nM / ROS measurement 1 μM / ROS measurement 10 μM: fluorescence relative to control = 1, H2O2 (100 μM) alone 6.31, 24 h + 3 h; for ROS measurement 250 nM: hybrid 250 nM; for ROS measurement 500 nM: hybrid 500 nM; for ROS measurement 1 μM: hybrid 1 μM; for ROS measurement 10 μM: hybrid 10 μM
Description: H2DCF-DA is a molecule that easily diffuses into cells and, through intracellular esterases, is split into H2DCF following the loss of the acetate group. H2DCF remains trapped within cells and is oxidized by intracellular ROS to form the highly fluorescent DCF compound. Spectrofluorimetric quantification of the DCF probe, provides the content of the ROS in the cell.
[…]. Subsequently, the growth medium was replaced with a fresh phenol red-free medium containing H2DCF-DA (25 μM). After 30 min at 37°C, the cells were washed twice to remove the extracellular H2DCF-DA, centrifuged, re-suspended in PBS, exposed to H2O2 (100 μM, 30 min) and the fluorescence was evaluated by flow cytometric analysis using a FACS Accury laser flow cytometer (Becton Dickinson). The results were expressed by setting the control equal to 1 and reporting all other values. H2O2 alone was used as a positive control.

[2] = Cupric ion reducing antioxidant capacity (CUPRAC); conditions: for TEAC: Supplementary Table 1, ε of compound divided by ε of Trolox; for CUPRAC: Trolox equivalent, 2% M-β-CD, A450 after 40 min
Description: The CUPRAC test was performed as reported by [Ozyürek et al. (2008)] on the new compounds in the unacetylated form.
CuCl2 solution 10 mM, was prepared by dissolving […] CuCl2 in water, and diluting to 250 ml. Neocuproine (Nc) solution 7.5 mM, was prepared by dissolving 15 mg of neocuproine in 10 ml of absolute EtOH. Ammonium acetate 1.0 M was prepared by dissolving 19.27 g of NH4Ac in 250 ml of water. The cyclodextrin (2% M-β-CD) stock solution was prepared in water-acetone (9:1 v/v). The standard solution of Trolox 1 mM was prepared in 2% M-β-CD. All working solutions of antioxidant 1 mM were freshly prepared in 2% M-β-CD.
1 ml of Cu(II) + 1 ml of Nc + 1 ml of NH4Ac buffer + x mL of antioxidant solution + (1.1 − x) 2% M-β-CD in 1:9 water–acetone mixture (v/v); total volume = 4.1 ml, measure A 450 against a reagent blank after 40 min of reagent addition at room temperature.
The Trolox equivalent antioxidant capacity (TEAC) is defined as the millimolar concentration of a Trolox solution having the antioxidant capacity equivalent to a 1.0 mM solution of the substance under investigation. The […] values were simply calculated by dividing the molar absorptivity ε of the species under investigation by that of Trolox under corresponding conditions. The concentration linearity ranges for all the antioxidants tested are reported in the Supplementary Material (See Supplementary Table S1).

[3] = Oxygen radical absorbance capacity (ORAC) by fluorescence; conditions: for ORAC: means ± SEM of three independent observations, sample 10 μM in 7% RMCD solution
Description: The measurement temperature was set at 37°C. A regression equation was built by comparing the net area under the FL decay curve and the Trolox concentration according to the following equation: Y(µM Trolox)=a+bX(AUC−n) and the final ORACFL values were expressed as Trolox equivalents (μmol g^−1).

SH-SY5Y cells [4] = experiment: MTT cell viability assay; format: cell-based, human; conditions: for pIC50: Homo sapiens, neurotoxic concentration, SH-SY5Y; for Effect on cell viability: 0.25–100 μM, 24 h
Excerpt: The MTT test is based on the observation that live cells can reduce the water-soluble yellow tetrazolium salt [3-(4,5-dimethylthiazol-2-yl)-2,5-diphenyltetrazolium bromide] into water-insoluble blue/magenta formazan crystals, by dehydrogenase of the active mitochondria. Dissolved formazan crystals can be quantified using a spectrophotometer and the values obtained are in direct correlation to the number of metabolically active cells. For this reason, this colorimetric assay is used to evaluate cell viability.
The MTT assay was performed as reported in literature ([Corasaniti et al., 2007]). […].
The optical density was measured at wavelengths of 540 and 690 nm using a spectrophotometer (X MARK Spectrophotometer Microplate Bio-Rad).

[5] = Metal-chelating properties by UV-vis spectroscopy; conditions: compound 75 μM with CuSO4, FeSO4, FeCl3 or ZnCl2 150 μM in MeOH, 30 min
Description: The complexing studies for all the unprotected hybrids were carried out through a UV–vis spectroscopy assay with the wavelength ranging from 200 to 400 nm. The unprotected hybrids were dissolved in a 5% DMSO methanolic solution (3 mM). This solution was diluted with methanol to 150 µM. 2 ml of the 150 µM solution were mixed with 2 ml of methanol to record the spectra of the hybrids alone, or with 2 ml of the salts solution (300 µM). Then, the absorption spectra of the antioxidants (75 μM) alone or in the presence of CuSO4, FeSO4, FeCl3 or ZnCl2 (150 μM) mixed for 30 min in methanol at room temperature were recorded in a 1 cm quartz cell.

SH-SY5Y cells [6] = experiment: MTT cell viability after H2O2 damage (neuroprotection); format: cell-based, human; conditions: hybrids 21 h, then H2O2 100 μM 3 h; vs hydrogen peroxide alone

SMILES | ROS measurement 250 nM (SH-SY5Y cells [1]) | ROS measurement 500 nM (SH-SY5Y cells [1]) | ROS measurement 1 μM (SH-SY5Y cells [1]) | ROS measurement 10 μM (SH-SY5Y cells [1]) | TEAC [2] | CUPRAC [2] | ORAC [3] | pIC50 (SH-SY5Y cells [4]) | Metal chelating activity [5] | Reduction of ROS amount (in words) (SH-SY5Y cells [1]; H2O2 100 μM as toxic insult) | Reduction of ORAC antioxidant capacity compared to HT1 [3] | Protective effect on cell viability against H2O2 damage (SH-SY5Y cells [6]) | Effect on cell viability (SH-SY5Y cells [4])
O=C(OCCc1ccc(O)c(O)c1)C1CCN(Cc2ccccc2)CC1 [HT1] | 6.18 | 5.25 | 5.47 | 5.49 | 3,36 | 3.36 (mmol of trolox)/(mmol of tested compound) | 21.2 ± 1.6 µmol trolox l^−1 | 4.30 | able to chelate only Copper (II) efficiently; also recorded: showed metal chelating properties |  |  |  | 
O=C(OCCc1cc(O)c(O)cc1[N+](=O)[O-])C1CCN(Cc2ccccc2)CC1 [HT2] | 2.21 | 1.97 | 1.12 | 1.38 | 2,77 | 2.77 (mmol of trolox)/(mmol of tested compound) | 7.6 ± 0.2 µmol trolox l^−1 | < 4.30 | chelates all the metal cations; also recorded: showed metal chelating properties | the more effective one to reduce the ROS amount to the physiological values | ~3 times | statistically significant increase in cell viability; also recorded: able to attenuate cell injury against oxidative stress | 
CC(=O)Oc1ccc(CCOC(=O)C2CCN(Cc3ccccc3)CC2)cc1 [HT4a] | 2.34 | 2.77 | 2.94 | 3.01 |  |  |  | < 5.00 |  |  |  | statistically significant increase in cell viability | reduction in cell viability was found for compounds HT3a and HT4a at concentrations higher than 10 μM
COc1cc(CCOC(=O)C2CCN(Cc3ccccc3)CC2)ccc1O [HT3] | 3.68 | 2.91 | 2.18 | 2.76 | 1,80 | 1.80 (mmol of trolox)/(mmol of tested compound) | 45.2 ± 3.6 µmol trolox l^−1 | < 4.60 |  |  |  |  | 
CC(=O)Oc1ccc(CCOC(=O)C2CCN(Cc3ccccc3)CC2)cc1OC(C)=O [HT1a] | 2.99 | 2.63 | 2.51 | 2.66 |  |  |  | < 4.30 |  |  |  |  | 
COc1cc(CCOC(=O)C2CCN(Cc3ccccc3)CC2)ccc1OC(C)=O [HT3a] | 2.27 | 1.94 | 1.58 | 2.13 |  |  |  | < 5.00 |  |  |  | statistically significant increase in cell viability; also recorded: able to attenuate cell injury against oxidative stress | reduction in cell viability was found for compounds HT3a and HT4a at concentrations higher than 10 μM
O=C(OCCc1ccc(O)cc1)C1CCN(Cc2ccccc2)CC1 [HT4] | 3.9 | 3.2 | 3.64 | 3.67 | 0,99 | 0.99 (mmol of trolox)/(mmol of tested compound) | 23.0 ± 2.0 µmol trolox l^−1 | < 4.60 |  |  |  |  | 
Cc1c(C)c2c(c(C)c1O)CCC(C)(C(=O)O)O2 (stereo not shown) [Trolox, reference compound] |  |  |  |  | 1 | 1 (mmol of trolox)/(mmol of tested compound) |  |  |  |  |  |  | 
OCCc1ccc(O)c(O)c1 [HT, hydroxytyrosol, reference compound] |  |  |  |  | 2,82 | 2.82 (mmol of trolox)/(mmol of tested compound) | 38.8 ± 4.4 µmol trolox l^−1 |  |  |  |  |  | 

From paper PMC8560896 (Frontiers in Chemistry, 2021)
